Laboratory results from publication PMC3670040, “Structure of Lipid Kinase p110β/p85β Elucidates an Unusual SH2-Domain-Mediated Inhibitory Mechanism” (Molecular Cell, 2011).
Square brackets hold non-standard residues; d marks the D form. Ends that are not written are not given here. pY = N[C@@H](Cc1ccc(OP(=O)(O)O)cc1)C(=O)O

System: human p110β
Assay: Transcreener ADP formation, human p110β with icSH2 of human p85α, p85β, p55γ
Type: biochemical
Conditions: icSH2 from p85α, p85β or p55γ; 10 μM pY2; Figure 4A
Protocol: Figure 4 cSH2 Is Important for p110β Inhibition In Vitro and in Cells (A) Kinase activity of human p110β and icSH2 wild-type constructs from three human regulatory subunits (p85α, p85β, and p55γ) in the absence and presence of 10 μM PDGFR pY2 (y axis as in Figure 1B). EC50s for wild-type and icSH2 tyrosine mutants, in the absence and presence of 10 μM PDGF pY2, are shown. (B) Western blots of HEK cells transiently expressing wild-type and mutant human p110β/p85α. The membrane was probed with antibodies against PKB, pPKB (pSer473), myc (p110β), FLAG (p85α), and actin. Bar graphs show mean ± SEM (n = 3) of PKB phosphorylation level normalized to wild-type p110β/p85α (WT). The position of the three mutations is mapped on the p110β/p85β structure. […]
The lipid kinase activity was determined using the Transcreener ADP2 FP Assay (BellBrook Labs, Madison, WI) according to manufacturer‟s specifications. This non-radioactive assay measures activity by quantitating the amount of ADP formed. The ADP formed by PI3K competes with fluorescent ADP tracer for binding to an anti-ADP antibody, thereby decreasing fluorescence polarization. […]

Question: Which “effect of pY2 on activity of human p110β bound to icSH2” value does the source give for “ESDGG[pY]MDMSKDESID[pY]VPMLDMKGDIKYADIE [pY2, bis-phosphopeptide (PDGFR 735–767, with pY740 and pY751)]” here?
Answer: significantly stimulated the activity
